Measurements published in the NIST ThermoML archive (doi:10.1021/je060113j).

Experiments:
[1] = 101.33 kPa, Liquid; for viscosity: Capillary tube (Ostwald / Ubbelohde) method; for mass density: Pycnometric method; for speed of sound: Sing-around technique in a fixed-path interferometer
[2] = xn = mol fraction of the nth substance listed; conditions: 101 kPa, Liquid; for viscosity: Capillary tube (Ostwald / Ubbelohde) method; for mass density: Pycnometric method; for speed of sound: Sing-around technique in a fixed-path interferometer

OCCO [1,2-ethanediol]
[1]
Conditions | mass density [kg/m3] | speed of sound [m/s] | viscosity [mPa·s]
298.15 K | 1106.3 | 1666 | 16.39
308.15 K | – | – | 10.77
318.15 K | – | – | 7.703

OCCO [1,2-ethanediol] + CN(C)C=O
[2], x1 = 0.5408
Conditions | mass density [kg/m3] | speed of sound [m/s] | viscosity [mPa·s]
298.15 K | 1024.8 | 1584.4 | 3.065
308.15 K | 1016.8 | – | 2.453
318.15 K | 1008.2 | – | 1.96

OCCO [1,2-ethanediol] + C[S+](C)[O-]
[2], x1 = 0.5573
Conditions | mass density [kg/m3] | speed of sound [m/s] | viscosity [mPa·s]
298.15 K | 1108.5 | 1617.3 | 5.195
308.15 K | 1098.9 | – | 3.901
318.15 K | 1089.6 | – | 3.108

C1COCCO1 [1,4-dioxane]
[1]
Conditions | mass density [kg/m3] | speed of sound [m/s] | viscosity [mPa·s]
298.15 K | 1027.3 | 1344 | 1.224
308.15 K | 1016 | – | 0.9268
318.15 K | 1005.6 | – | 0.7991

C1COCCO1 [1,4-dioxane] + OCCO
[2], x2 = 0.5867
Conditions | mass density [kg/m3] | speed of sound [m/s] | viscosity [mPa·s]
298.15 K | 1070.9 | 1519.2 | 4.386
308.15 K | 1060.4 | – | 3.36
318.15 K | 1050.9 | – | 2.661

C[S+](C)[O-] [dimethyl sulfoxide]
[1]
Conditions | mass density [kg/m3] | speed of sound [m/s] | viscosity [mPa·s]
298.15 K | 1095.4 | 1493 | 2.042
308.15 K | 1085.9 | – | 1.568
318.15 K | 1076.7 | – | 1.485

CN(C)C=O [dimethylformamide]
[1]
Conditions | mass density [kg/m3] | speed of sound [m/s] | viscosity [mPa·s]
298.15 K | 946.1 | 1465 | 0.8586
308.15 K | 939.9 | – | 0.7763
318.15 K | 931.6 | – | 0.7125

C1CCOC1 [tetrahydrofuran]
[1]
Conditions | mass density [kg/m3] | speed of sound [m/s] | viscosity [mPa·s]
298.15 K | 880.7 | 1279 | 0.463
308.15 K | 871.2 | – | 0.4277
318.15 K | 861.4 | – | 0.3902

C1CCOC1 [tetrahydrofuran] + OCCO
[2], x2 = 0.5374
Conditions | mass density [kg/m3] | speed of sound [m/s] | viscosity [mPa·s]
298.15 K | 984.5 | 1436.8 | 2.509
308.15 K | 974.1 | – | 1.866
318.15 K | 964.9 | – | 1.558

O [water]
[1]
Conditions | mass density [kg/m3] | speed of sound [m/s] | viscosity [mPa·s]
298.15 K | – | 1498 | 0.8904
308.15 K | 994.1 | – | 0.7194
318.15 K | 990.3 | – | 0.596
